Results published in US20090047221A1 (NIPRI LIMITED, priority 2004, published 2009).

System: cancer cell line MDA-MB-468
Assay: Combination index with known cancer drugs against proliferation (Calcusyn software)
Format: cell-based
Description: A combination index of less than 0.1 indicates very strong synergy; a combination index of 0.1 to 0.3 indicates strong synergism; a combination index of 0.3 to 0.7 indicates synergism; a combination index of 0.7 to 0.85 indicates moderate synergism; a combination index of 0.85 to 0.9 indicates slight synergism and a combination index of 0.9 to 1.1 indicates only very slight synergism, said combination being close to merely additive.
The combination index may be calculated using calcusyn software.
Evidence of synergy was determined by calculation of the combination index using Calcusyn software.
The MTT assay was used initially to determine the anti-proliferative activity of the test compounds. In the MTT assay a yellow thiazolyl blue tetrazolium bromide salt (MTT) is reduced, in metabolically active cells, to form insoluble purple formazan crystals which are solubilised by the addition of dimethyl sulphoxide (DMSO). Absorbance readings can then be determined spectrophotometrically and a relationship established between control untreated cells and drug treated cells enabling the quantification of anti-proliferative changes as a result of drug treatment (Mosmann, 1983).
Wells containing medium only were used as blanks. Following the attachment period, cells were treated with appropriate drug concentrations (20 μl added per well). 40 mg/ml stock drug solutions, in DMSO, were stored at −20° C. and on the day of drug treatment working solutions of 4 mg/ml were prepared in medium which was further diluted to achieve final drug dilution volumes of 20 μl. Initial screening was determined over a concentration range of 1-200 μg/ml. For potent compounds the assay was repeated over a narrower concentration range to determine accurate IC50 values. Cells were exposed to drug for 96 h continual exposure (37° C., 5% CO2). Following the 96 h incubation, 50 μl MTT solution (1 g MTT/500 ml PBS) was added per well and the plates were further incubated for 4 h (37° C., 5% CO2). After incubation the MTT and medium was removed from the wells and 100 μl DMSO added per well. Plates were agitated on an orbital mixer platform (Stuart Scientific) for 10 minutes. Absorbance was measured at 570 nm on a Biotrak II (Amersham Bioscience) plate reader. IC50 values were calculated comparing control and drug treated cells.

SMILES: CCCCCCNC(=O)c1ccc2c(c1O)C(=O)OC(C)C2 (racemic) [ALM-49, Hexyl Amide]
- Combination Index (Cisplatin 1 × 10^−2 mol/L, ALM compound 0.1 μg/ml): 0.003
- Combination Index (Cisplatin 1 × 10^−2 mol/L, ALM compound 0.5 μg/ml): 0.002
- Combination Index (Cisplatin 1 × 10^−2 mol/L, ALM compound 1.0 μg/ml): 0.009
- Combination Index (Cisplatin 1 × 10^−2 mol/L, ALM compound 5.0 μg/ml): 0.051
- Combination Index (Cisplatin 1 × 10^−3 mol/L, ALM compound 0.1 μg/ml): No
- Combination Index (Cisplatin 1 × 10^−3 mol/L, ALM compound 0.5 μg/ml): No
- Combination Index (Cisplatin 1 × 10^−3 mol/L, ALM compound 1.0 μg/ml): No
- Combination Index (Cisplatin 1 × 10^−3 mol/L, ALM compound 5.0 μg/ml): No
- Combination Index (Cisplatin 1 × 10^−4 mol/L, ALM compound 0.1 μg/ml): No
- Combination Index (Cisplatin 1 × 10^−4 mol/L, ALM compound 0.5 μg/ml): No
- Combination Index (Cisplatin 1 × 10^−4 mol/L, ALM compound 1.0 μg/ml): No
- Combination Index (Cisplatin 1 × 10^−4 mol/L, ALM compound 5.0 μg/ml): No
- Combination Index (Cisplatin 1 × 10^−5 mol/L, ALM compound 0.1 μg/ml): No
- Combination Index (Cisplatin 1 × 10^−5 mol/L, ALM compound 0.5 μg/ml): No
- Combination Index (Cisplatin 1 × 10^−5 mol/L, ALM compound 1.0 μg/ml): No
- Combination Index (Cisplatin 1 × 10^−5 mol/L, ALM compound 5.0 μg/ml): No
- Combination Index (Cisplatin 1 × 10^−6 mol/L, ALM compound 0.1 μg/ml): No
- Combination Index (Cisplatin 1 × 10^−6 mol/L, ALM compound 0.5 μg/ml): No
- Combination Index (Cisplatin 1 × 10^−6 mol/L, ALM compound 1.0 μg/ml): No
- Combination Index (Cisplatin 1 × 10^−6 mol/L, ALM compound 5.0 μg/ml): No
- Combination Index (Cisplatin 1 × 10^−7 mol/L, ALM compound 0.1 μg/ml): 0.625
- Combination Index (Cisplatin 1 × 10^−7 mol/L, ALM compound 0.5 μg/ml): No
- Combination Index (Cisplatin 1 × 10^−7 mol/L, ALM compound 1.0 μg/ml): No
- Combination Index (Cisplatin 1 × 10^−7 mol/L, ALM compound 5.0 μg/ml): No
- Combination Index (Cisplatin 1 × 10^−8 mol/L, ALM compound 0.1 μg/ml): 0.119
- Combination Index (Cisplatin 1 × 10^−8 mol/L, ALM compound 0.5 μg/ml): No
- Combination Index (Cisplatin 1 × 10^−8 mol/L, ALM compound 1.0 μg/ml): No
- Combination Index (Cisplatin 1 × 10^−8 mol/L, ALM compound 5.0 μg/ml): No
- Combination Index (Cisplatin 1 × 10^−9 mol/L, ALM compound 0.1 μg/ml): 0.487
- Combination Index (Cisplatin 1 × 10^−9 mol/L, ALM compound 0.5 μg/ml): No
- Combination Index (Cisplatin 1 × 10^−9 mol/L, ALM compound 1.0 μg/ml): No
- Combination Index (Cisplatin 1 × 10^−9 mol/L, ALM compound 5.0 μg/ml): No
- Combination Index (Doxorubicin 1 × 10^−4 mol/L, ALM compound 0.1 μg/ml): No
- Combination Index (Doxorubicin 1 × 10^−4 mol/L, ALM compound 0.5 μg/ml): No
- Combination Index (Doxorubicin 1 × 10^−4 mol/L, ALM compound 1.0 μg/ml): No
- Combination Index (Doxorubicin 1 × 10^−4 mol/L, ALM compound 5.0 μg/ml): 0.968
- Combination Index (Doxorubicin 1 × 10^−5 mol/L, ALM compound 0.1 μg/ml): 0.410
- Combination Index (Doxorubicin 1 × 10^−5 mol/L, ALM compound 0.5 μg/ml): 0.436
- Combination Index (Doxorubicin 1 × 10^−5 mol/L, ALM compound 1.0 μg/ml): 0.438
- Combination Index (Doxorubicin 1 × 10^−5 mol/L, ALM compound 5.0 μg/ml): 0.720
- Combination Index (Etoposide 1 × 10^−4 mol/L, ALM compound 0.1 μg/ml): 0.385
- Combination Index (Etoposide 1 × 10^−4 mol/L, ALM compound 0.5 μg/ml): 0.234
- Combination Index (Etoposide 1 × 10^−4 mol/L, ALM compound 1.0 μg/ml): 0.210
- Combination Index (Etoposide 1 × 10^−4 mol/L, ALM compound 5.0 μg/ml): 0.175
- Combination Index (Etoposide 1 × 10^−5 mol/L, ALM compound 0.1 μg/ml): 1.184
- Combination Index (Etoposide 1 × 10^−5 mol/L, ALM compound 0.5 μg/ml): 0.659
- Combination Index (Etoposide 1 × 10^−5 mol/L, ALM compound 1.0 μg/ml): 1.065
- Combination Index (Etoposide 1 × 10^−5 mol/L, ALM compound 5.0 μg/ml): 0.941
- Combination Index (Etoposide 1 × 10^−6 mol/L, ALM compound 0.1 μg/ml): No
- Combination Index (Etoposide 1 × 10^−6 mol/L, ALM compound 0.5 μg/ml): 0.806
- Combination Index (Etoposide 1 × 10^−6 mol/L, ALM compound 1.0 μg/ml): No
- Combination Index (Etoposide 1 × 10^−6 mol/L, ALM compound 5.0 μg/ml): No
- Combination Index (Etoposide 1 × 10^−7 mol/L, ALM compound 0.1 μg/ml): 1.167
- Combination Index (Etoposide 1 × 10^−7 mol/L, ALM compound 0.5 μg/ml): 0.78
- Combination Index (Etoposide 1 × 10^−7 mol/L, ALM compound 1.0 μg/ml): No
- Combination Index (Etoposide 1 × 10^−7 mol/L, ALM compound 5.0 μg/ml): No
- Combination Index (Etoposide 1 × 10^−8 mol/L, ALM compound 0.1 μg/ml): No
- Combination Index (Etoposide 1 × 10^−8 mol/L, ALM compound 0.5 μg/ml): No
- Combination Index (Etoposide 1 × 10^−8 mol/L, ALM compound 1.0 μg/ml): No
- Combination Index (Etoposide 1 × 10^−8 mol/L, ALM compound 5.0 μg/ml): No
- Combination Index (Etoposide 1 × 10^−9 mol/L, ALM compound 0.1 μg/ml): 0.836
- Combination Index (Etoposide 1 × 10^−9 mol/L, ALM compound 0.5 μg/ml): No
- Combination Index (Etoposide 1 × 10^−9 mol/L, ALM compound 1.0 μg/ml): No
- Combination Index (Etoposide 1 × 10^−9 mol/L, ALM compound 5.0 μg/ml): No
- Combination Index (Etoposide 1 × 10^−10 mol/L, ALM compound 0.1 μg/ml): 0.344
- Combination Index (Etoposide 1 × 10^−10 mol/L, ALM compound 0.5 μg/ml): No
- Combination Index (Etoposide 1 × 10^−10 mol/L, ALM compound 1.0 μg/ml): No
- Combination Index (Etoposide 1 × 10^−10 mol/L, ALM compound 5.0 μg/ml): No
- Combination Index (Irinotecan 1 × 10^−3 mol/L, ALM compound 0.1 μg/ml): No
- Combination Index (Irinotecan 1 × 10^−3 mol/L, ALM compound 0.5 μg/ml): 0.606
- Combination Index (Irinotecan 1 × 10^−3 mol/L, ALM compound 1.0 μg/ml): 0.715
- Combination Index (Irinotecan 1 × 10^−3 mol/L, ALM compound 5.0 μg/ml): 0.557
- Combination Index (Irinotecan 1 × 10^−4 mol/L, ALM compound 0.1 μg/ml): 0.029
- Combination Index (Irinotecan 1 × 10^−4 mol/L, ALM compound 0.5 μg/ml): 0.019
- Combination Index (Irinotecan 1 × 10^−4 mol/L, ALM compound 1.0 μg/ml): 0042
- Combination Index (Irinotecan 1 × 10^−4 mol/L, ALM compound 5.0 μg/ml): 0.042
- Combination Index (Irinotecan 1 × 10^−5 mol/L, ALM compound 0.1 μg/ml): No
- Combination Index (Irinotecan 1 × 10^−5 mol/L, ALM compound 0.5 μg/ml): No
- Combination Index (Irinotecan 1 × 10^−5 mol/L, ALM compound 1.0 μg/ml): No
- Combination Index (Irinotecan 1 × 10^−5 mol/L, ALM compound 5.0 μg/ml): No
- Combination Index (Irinotecan 1 × 10^−6 mol/L, ALM compound 0.1 μg/ml): No
- Combination Index (Irinotecan 1 × 10^−6 mol/L, ALM compound 0.5 μg/ml): No
- Combination Index (Irinotecan 1 × 10^−6 mol/L, ALM compound 1.0 μg/ml): No
- Combination Index (Irinotecan 1 × 10^−6 mol/L, ALM compound 5.0 μg/ml): No
- Combination Index (Irinotecan 1 × 10^−7 mol/L, ALM compound 0.1 μg/ml): No
- Combination Index (Irinotecan 1 × 10^−7 mol/L, ALM compound 0.5 μg/ml): No
- Combination Index (Irinotecan 1 × 10^−7 mol/L, ALM compound 1.0 μg/ml): No
- Combination Index (Irinotecan 1 × 10^−7 mol/L, ALM compound 5.0 μg/ml): No
- Combination Index (Irinotecan 1 × 10^−8 mol/L, ALM compound 0.1 μg/ml): No
- Combination Index (Irinotecan 1 × 10^−8 mol/L, ALM compound 0.5 μg/ml): No
- Combination Index (Irinotecan 1 × 10^−8 mol/L, ALM compound 1.0 μg/ml): No
- Combination Index (Irinotecan 1 × 10^−8 mol/L, ALM compound 5.0 μg/ml): No
- Combination Index (Irinotecan 1 × 10^−9 mol/L, ALM compound 0.1 μg/ml): No
- Combination Index (Irinotecan 1 × 10^−9 mol/L, ALM compound 0.5 μg/ml): No
- Combination Index (Irinotecan 1 × 10^−9 mol/L, ALM compound 1.0 μg/ml): No
- Combination Index (Irinotecan 1 × 10^−9 mol/L, ALM compound 5.0 μg/ml): No
- Combination Index (Irinotecan 1 × 10^−10 mol/L, ALM compound 0.1 μg/ml): No
- Combination Index (Irinotecan 1 × 10^−10 mol/L, ALM compound 0.5 μg/ml): No
- Combination Index (Irinotecan 1 × 10^−10 mol/L, ALM compound 1.0 μg/ml): No
- Combination Index (Irinotecan 1 × 10^−10 mol/L, ALM compound 5.0 μg/ml): No
